For orientation: IC50 means the concentration needed to halve the response being measured.

Data set [1] has as its system Trypanosoma cruzi. Put plainly: Trypanocidal activity against epimastigote form of Trypanosoma cruzi IRHOD/CO/2008/SN3 assessed as inhibition of acetate excretion at IC25 after 96 hrs by NMR spectra analysis. It counts as functional, organism-based.
Data set [2] is described as follows: Inhibition of Fe-SOD in Trypanosoma cruzi IRHOD/CO/2008/SN3 epimastigotes assessed as reduction of nitrobluetetrazolium measured for 10 mins by spectrophotometric analysis.
For data set [3], the system named is Trypanosoma cruzi. As to the kind of experiment: Trypanocidal activity against epimastigote form of Trypanosoma cruzi IRHOD/CO/2008/SN3 assessed as appearance of strongly electrondensed glycosomes at IC25 after 96 hrs by transmission electron microscopic analysis. In kind it is functional, organism-based.
Data set [4] concerns Mus musculus. As to the kind of experiment: Hepatotoxicity in BALB/c mouse infected with bloodstream trypomastigote form of Trypanosoma cruzi IRHOD/CO/2008/SN3 assessed as presence of necrotic cells in portal space at 5 mg/kg/day, ip administered for 5 days measured 150 days post-infection by light microscopic analysis. It counts as toxicity, organism-based. Further details: route intraperitoneal. Particulars: in vivo, 3600 h.

Data set [5] deals with Mus musculus. Put plainly: Hepatotoxicity in BALB/c mouse infected with bloodstream trypomastigote form of Trypanosoma cruzi IRHOD/CO/2008/SN3 assessed as delocalized hepatic destruction at 5 mg/kg/day, ip administered for 5 days measured 150 days post-infection by light microscopic analysis. In kind it is toxicity, organism-based. Further details: route intraperitoneal. Particulars: in vivo, 3600 h.

Data set [6] concerns Mus musculus. As to the kind of experiment: Hepatotoxicity in BALB/c mouse infected with bloodstream trypomastigote form of Trypanosoma cruzi IRHOD/CO/2008/SN3 assessed as granuloma with lymphocytic infiltrate at 5 mg/kg/day, ip administered for 5 days measured 150 days post-infection by light microscopic analysis. It counts as toxicity, organism-based. Further details: route intraperitoneal. Particulars: in vivo, 3600 h.

The nature of data set [7]: Selectivity index, ratio of IC50 for African green monkey Vero cells to IC50 for extracellular trypomastigote form of Trypanosoma cruzi IRHOD/CO/2008/SN3. It counts as toxicity, cell-based. Particulars: read-out: Ratio IC50.
The nature of data set [8]: Selectivity index, ratio of IC50 for African green monkey Vero cells to IC50 for intracellular amastigote form of Trypanosoma cruzi IRHOD/CO/2008/SN3. Particulars: read-out: Ratio IC50. It counts as toxicity, cell-based.
Data set [9] is described as follows: Selectivity index, ratio of IC50 for African green monkey Vero cells to IC50 for extracellular epimastigote form of Trypanosoma cruzi IRHOD/CO/2008/SN3. It counts as toxicity, cell-based. Particulars: read-out: Ratio IC50.
Data set [10] has as its system Trypanosoma cruzi. As to the kind of experiment: Trypanocidal activity against bloodstream trypomastigote form of Trypanosoma cruzi IRHOD/CO/2008/SN3 infected in cyclophosphamide monohydrate-treated BALB/c immunosuppression mouse model assessed as reduction of total anti-parasitic Ig-G level in serum at 5 mg/kg/day, ip administered for 5 days measured 150 days post-infection by ELISA. It counts as functional, organism-based. (ELISA stands for enzyme-linked immunosorbent assay.)

The subject of data set [11] is Trypanosoma cruzi. As to the kind of experiment: Trypanocidal activity against epimastigote form of Trypanosoma cruzi IRHOD/CO/2008/SN3 assessed as effect on succinate production at IC25 after 96 hrs by NMR spectra analysis. It counts as functional, organism-based.

Molecules are shown by their SMILES. Activity calls are given as the source filed them. No cut-off for these calls is given here.

`Cl.c1cncc(CNCCN2CCNCc3cccc(n3)CNCC2)c1`: the inhibition entry in the data set with Trypanosoma cruzi [1] is “Active”. For the same molecule, in data set [2], the concentration for half-maximal inhibition (IC50) turned out to be 10.8 µM. In addition, the outcome with Trypanosoma cruzi [3] and in the data set with Trypanosoma cruzi [10] was Active. Further, the values for the Activity result with Mus musculus [4], in the data set on Mus musculus [5] and in the data set with Mus musculus [6] were “Non-toxic”, “Toxic” and “Toxic”, respectively. Besides, the values for the selectivity ratio in data set [7], in data set [8] and in [9] were 21.6, 44.8 and 52.7, respectively. Moreover, the outcome in the data set with Trypanosoma cruzi [11] was inactive.

Values taken from ChEMBL document CHEMBL3085706, “Scorpiand-like azamacrocycles prevent the chronic establishment of Trypanosoma cruzi in a murine model” (Eur J Med Chem, 2013).
